Earlier results as cited in patent publication US20050261335A1, “Carvedilol formulations” (priority 2002, published 2005).
Like-named read-outs stand apart in the source and are kept apart here.

For COc1ccccc1OCCNCC(O)COc1cccc2[nH]c3ccccc3c12 (racemic) [Carvedilol], the solubility (above pH 9.0) is listed as < 1 µg/mL, the saturation solubility (pH 5, room temperature) is listed as ~100 µg/mL and the saturation solubility (pH 7, room temperature) is listed as ~23 µg/mL.
